≈ marks a conversion by molar mass, not a printed value. Calls of active or inactive are those of the source. The calls are words filed in the database; no cut-off is given here.
Key:
[1] = Solubility of compound in 3 equimolar NaOH and distilled water; format: physicochemical; conditions: buffer
[2] = system: KB; experiment: Antiproliferative activity against human KB cells after 3 days by SRB assay; format: functional, cell-based; conditions: 72 h
[3] = Solubility of compound in 2 equimolar NaOH and distilled water; format: physicochemical; conditions: buffer
[4] = target: Cyclin-dependent kinase 1/cyclin B1 (Homo sapiens) (UniProt P06493+P14635); experiment: Inhibition of CDK1/cyclin B at 1 uM after 40 mins by lequid scintillation counting; format: protein-complex assay
[5] = target: Inhibitor of nuclear factor kappa-B kinase subunit beta (Homo sapiens, UniProt O14920); experiment: Inhibition of recombinant IKK-beta preincubated for 15 mins by HTRF assay
[6] = target: Cyclin-dependent kinase 1/cyclin B1 (Homo sapiens, UniProt P06493); experiment: Inhibition of CDK1/cyclin B after 40 mins by liquid scintillation counting; format: protein-complex assay
[7] = Aqueous solubility of compound in water; format: physicochemical; conditions: buffer
[8] = target: Cyclin-dependent kinase 2/cyclin E1 (Homo sapiens) (UniProt P24864+P24941); experiment: Inhibition of CDK2/cyclin E as percent residual activity; format: protein-complex assay; parameters: Residual activity / inhibition: concentration or dose not given beside the values
[9] = system: RK3E; experiment: Antitumor activity against rat RK3E cells expressing k-ras and GFP/Luc genes transplanted in Sprague-Dawley rat assessed as decrease of tumor growth at 5 mg/kg, iv administered 5 days after tumor implantation for 5 times measured on day 10 by luciferin bioluminescence assay; format: functional, organism-based; parameters: dose 5 mg/kg
[10] = Cell cycle arrest in rat RK3E cells expressing k-ras assessed as accumulation at G2/M phase at 1 uM after 24 hrs using propidium iodide stain by flow cytometry; format: functional, cell-based
[11] = target: T1, High affinity nerve growth factor receptor (Homo sapiens, UniProt P04629); experiment: Inhibition of recombinant TrKa preincubated for 15 mins by HTRF assay
Target sequence in this assay (P04629 whole entry): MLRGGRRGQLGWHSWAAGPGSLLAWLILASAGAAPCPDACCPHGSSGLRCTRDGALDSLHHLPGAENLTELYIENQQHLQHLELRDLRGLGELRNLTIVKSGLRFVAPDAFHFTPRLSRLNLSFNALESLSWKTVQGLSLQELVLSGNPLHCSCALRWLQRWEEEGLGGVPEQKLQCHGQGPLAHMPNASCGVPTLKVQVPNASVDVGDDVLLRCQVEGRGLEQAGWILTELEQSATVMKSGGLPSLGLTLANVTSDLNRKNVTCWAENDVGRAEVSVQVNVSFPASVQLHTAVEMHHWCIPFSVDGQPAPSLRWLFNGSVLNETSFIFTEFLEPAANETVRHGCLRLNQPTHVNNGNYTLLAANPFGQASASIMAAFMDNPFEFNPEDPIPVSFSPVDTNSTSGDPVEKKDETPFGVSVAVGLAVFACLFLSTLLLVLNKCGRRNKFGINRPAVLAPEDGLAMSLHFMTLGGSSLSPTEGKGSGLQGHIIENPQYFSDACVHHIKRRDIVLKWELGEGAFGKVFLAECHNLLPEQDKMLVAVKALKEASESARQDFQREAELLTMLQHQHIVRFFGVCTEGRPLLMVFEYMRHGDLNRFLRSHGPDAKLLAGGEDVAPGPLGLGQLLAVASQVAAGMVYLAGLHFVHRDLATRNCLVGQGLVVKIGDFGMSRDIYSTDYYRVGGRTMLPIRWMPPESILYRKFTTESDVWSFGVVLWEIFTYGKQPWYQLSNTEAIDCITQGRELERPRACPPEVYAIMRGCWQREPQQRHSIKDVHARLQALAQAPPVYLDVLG

[12] = system: RK3E; experiment: Antitumor activity against rat RK3E cells expressing k-ras and GFP/Luc genes transplanted in Sprague-Dawley rat assessed as decrease of PCNA expression at 5 mg/kg, iv administered 5 days after tumor implantation for 5 times measured after 11 days by immunohistochemical staining relative to control; format: functional, organism-based; parameters: dose 5 mg/kg
[13] = Antitumor activity against rat RK3E cells expressing k-ras and GFP/Luc genes transplanted in Sprague-Dawley rat assessed as decrease in tumor volume at 5 mg/kg, iv administered 5 days after tumor implantation for 5 times measured after 48 hrs post dose relative to control; format: functional; parameters: scale not given: the % may be the effect or the level left
[14] = target: T1, High affinity nerve growth factor receptor; experiment: Inhibition of recombinant TrKa at 1 uM preincubated for 15 mins by HTRF assay
Target sequence in this assay (P04629 33-796 limits assumed): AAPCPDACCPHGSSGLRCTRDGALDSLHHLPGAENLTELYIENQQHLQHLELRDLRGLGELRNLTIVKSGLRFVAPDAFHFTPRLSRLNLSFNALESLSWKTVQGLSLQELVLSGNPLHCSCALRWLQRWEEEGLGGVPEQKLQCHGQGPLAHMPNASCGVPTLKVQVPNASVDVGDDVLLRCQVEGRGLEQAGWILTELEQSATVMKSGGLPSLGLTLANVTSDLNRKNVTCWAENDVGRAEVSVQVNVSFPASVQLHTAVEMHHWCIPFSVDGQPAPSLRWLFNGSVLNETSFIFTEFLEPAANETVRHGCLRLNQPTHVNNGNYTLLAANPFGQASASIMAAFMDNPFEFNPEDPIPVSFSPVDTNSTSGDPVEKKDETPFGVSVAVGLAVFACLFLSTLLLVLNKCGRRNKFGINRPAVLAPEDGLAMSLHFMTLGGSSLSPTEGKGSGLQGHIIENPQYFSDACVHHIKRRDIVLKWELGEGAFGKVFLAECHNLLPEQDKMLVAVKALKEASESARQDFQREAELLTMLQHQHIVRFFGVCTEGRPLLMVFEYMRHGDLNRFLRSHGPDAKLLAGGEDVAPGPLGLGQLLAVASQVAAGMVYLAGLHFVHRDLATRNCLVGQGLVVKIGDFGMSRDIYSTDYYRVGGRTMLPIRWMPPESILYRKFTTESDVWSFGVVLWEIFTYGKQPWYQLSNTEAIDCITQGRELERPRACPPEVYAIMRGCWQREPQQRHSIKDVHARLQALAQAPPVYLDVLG

[15] = system: MCF7; experiment: Antiproliferative activity against human MCF7 cells after 3 days by SRB assay; format: functional, cell-based; conditions: MCF7, 72 h
[16] = target: Cyclin-dependent kinase 2/cyclin E1 (Homo sapiens, UniProt P24941); experiment: Inhibition of CDK2/cyclin E; format: protein-complex assay
[17] = system: RK3E; experiment: Antitumor activity against rat RK3E cells expressing k-ras and GFP/Luc genes transplanted in Sprague-Dawley rat assessed as increase in apoptotic cells at 5 mg/kg, iv administered 5 days after tumor implantation for 5 times measured after 11 days by TUNEL assay relative to control; format: functional, organism-based; parameters: dose 5 mg/kg
[18] = Cell cycle arrest in rat RK3E cells expressing k-ras assessed as accumulation at G0/G1 phase at 2.5 uM after 24 hrs using propidium iodide stain by flow cytometry; format: functional, cell-based
[19] = Cell cycle arrest in rat RK3E cells expressing k-ras assessed as accumulation at sub G0 phase at 2.5 uM after 24 hrs using propidium iodide stain by flow cytometry; format: functional, cell-based
[20] = Solubility of compound in 3 equimolar NaOH and 0.1 N NaHCO3 buffer; format: physicochemical
[21] = Cell cycle arrest in rat RK3E cells expressing k-ras assessed as accumulation at S phase at 1 uM after 24 hrs using propidium iodide stain by flow cytometry; format: functional, cell-based
[22] = system: Rattus norvegicus; experiment: Toxicity in rat RK3E cells expressing k-ras and GFP/Luc genes transplanted in Sprague-Dawley rat assessed as change in body weight at 5 mg/kg, iv administered 5 days after tumor implantation for 5 times measured after 48 hrs post dose; format: organism-based; parameters: dose 5 mg/kg, route intravenous; conditions: in vivo
[23] = Cell cycle arrest in rat RK3E cells expressing k-ras assessed as accumulation at S phase at 2.5 uM after 24 hrs using propidium iodide stain by flow cytometry; format: functional, cell-based
[24] = Cell cycle arrest in rat RK3E cells expressing k-ras assessed as accumulation at G2/M phase at 2.5 uM after 24 hrs using propidium iodide stain by flow cytometry; format: functional, cell-based
[25] = Cell cycle arrest in rat RK3E cells expressing k-ras assessed as accumulation at sub G0 phase at 1 uM after 24 hrs using propidium iodide stain by flow cytometry; format: functional, cell-based
[26] = Cell cycle arrest in rat RK3E cells expressing k-ras assessed as accumulation at G0/G1 phase at 1 uM after 24 hrs using propidium iodide stain by flow cytometry; format: functional, cell-based

Chain of Inhibitor of nuclear factor kappa-B kinase subunit beta (O14920 whole entry): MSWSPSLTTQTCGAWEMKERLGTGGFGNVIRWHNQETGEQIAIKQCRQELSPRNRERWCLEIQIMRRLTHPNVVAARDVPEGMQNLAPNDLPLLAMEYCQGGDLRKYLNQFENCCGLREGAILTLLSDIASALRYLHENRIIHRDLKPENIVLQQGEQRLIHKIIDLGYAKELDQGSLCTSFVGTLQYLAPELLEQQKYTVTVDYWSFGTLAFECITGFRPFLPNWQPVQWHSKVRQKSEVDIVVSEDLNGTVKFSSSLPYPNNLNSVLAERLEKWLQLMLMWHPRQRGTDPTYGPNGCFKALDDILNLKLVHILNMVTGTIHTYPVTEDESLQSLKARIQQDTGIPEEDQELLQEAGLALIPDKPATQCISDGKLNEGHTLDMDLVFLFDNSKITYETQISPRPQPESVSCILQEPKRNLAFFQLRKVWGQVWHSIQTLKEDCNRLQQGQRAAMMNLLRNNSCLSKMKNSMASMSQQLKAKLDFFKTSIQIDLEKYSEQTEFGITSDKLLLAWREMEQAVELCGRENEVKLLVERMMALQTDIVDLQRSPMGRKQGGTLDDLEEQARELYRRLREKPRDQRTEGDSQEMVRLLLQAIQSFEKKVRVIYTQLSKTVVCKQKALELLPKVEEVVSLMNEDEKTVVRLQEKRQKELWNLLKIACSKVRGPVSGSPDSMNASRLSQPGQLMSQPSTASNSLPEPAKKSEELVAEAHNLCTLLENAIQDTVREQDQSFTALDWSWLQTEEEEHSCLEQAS
Chain of Cyclin-dependent kinase 1/cyclin B1 (Homo sapiens) (P06493 whole entry, looked up): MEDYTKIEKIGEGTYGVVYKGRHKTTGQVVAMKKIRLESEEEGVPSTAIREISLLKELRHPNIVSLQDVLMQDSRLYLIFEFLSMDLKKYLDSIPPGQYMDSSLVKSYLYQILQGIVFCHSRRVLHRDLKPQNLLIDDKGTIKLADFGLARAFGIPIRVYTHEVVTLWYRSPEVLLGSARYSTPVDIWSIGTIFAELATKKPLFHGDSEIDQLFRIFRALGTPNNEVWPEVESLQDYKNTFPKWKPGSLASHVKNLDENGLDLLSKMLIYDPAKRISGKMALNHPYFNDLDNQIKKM
Chain of Cyclin-dependent kinase 1/cyclin B1 (Homo sapiens) (P14635 whole entry, looked up): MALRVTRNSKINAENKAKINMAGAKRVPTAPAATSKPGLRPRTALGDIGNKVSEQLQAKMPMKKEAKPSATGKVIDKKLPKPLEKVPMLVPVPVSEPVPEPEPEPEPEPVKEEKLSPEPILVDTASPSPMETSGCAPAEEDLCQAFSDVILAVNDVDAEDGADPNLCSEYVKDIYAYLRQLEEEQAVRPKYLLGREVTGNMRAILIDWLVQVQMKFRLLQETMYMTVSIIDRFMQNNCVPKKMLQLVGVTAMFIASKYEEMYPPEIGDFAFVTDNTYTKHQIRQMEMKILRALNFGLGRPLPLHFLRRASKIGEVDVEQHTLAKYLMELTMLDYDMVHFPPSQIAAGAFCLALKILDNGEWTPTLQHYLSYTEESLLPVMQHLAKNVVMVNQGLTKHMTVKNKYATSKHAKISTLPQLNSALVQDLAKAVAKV
Chain of Cyclin-dependent kinase 1/cyclin B1 (P06493 whole entry): as the sequence (P06493 whole entry, looked up) above
Chain of Cyclin-dependent kinase 1/cyclin B1 (P14635 whole entry, further chain): as the sequence (P14635 whole entry, looked up) above

- solubility [1]: 3000 µg/mL (≈ 8.87 mM)
- IC50 [2]: 1330 nM
- solubility [3]: 2700 µg/mL (≈ 7.98 mM)
- inhibition [4]: Active
- IC50 [5]: 10000 nM
- IC50 [6]: 13 nM
- solubility [7]: 10 µg/mL (≈ 0.0296 mM)
- Residual activity [8]: 90%
- IC50 [11]: 4000 nM
- inhibition [14]: 9%
- IC50 [15]: 1210 nM
- IC50 [16]: 1.91 nM
- solubility [20]: 200 µg/mL (≈ 0.591 mM)
Compound: O=C1Nc2ccc([N+](=O)[O-])cc2/C1=C1/Nc2ccc(O)cc2/C1=N/O
- Activity [9]: Active
- Activity [10]: 8.16%
- Activity [12]: Active
- Activity [13]: 84.3%
- Activity [17]: Active
- Activity [18]: 74.5%
- Activity [19]: 5.59%
- Activity [21]: 7.96%
- Activity [22]: Non-toxic
- Activity [23]: 9.66%
- Activity [24]: 5.67%
- Activity [25]: 8.16%
- Activity [26]: 57.7%

Source: ChEMBL document CHEMBL1157914, “5,5'-substituted indirubin-3'-oxime derivatives as potent cyclin-dependent kinase inhibitors with anticancer activity” (J Med Chem, 2010)
